Reference: ChEMBL document CHEMBL1201862, “PubChem BioAssay data set” (2004)
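Values below derive from 48-hour exposures of cells grown in 96-well plates, with endpoints linearly interpolated between the two concentrations bracketing the appropriate inhibition level. GI50 = concentration required for 50% inhibition of growth.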 Calls of active or inactive are those of the source. Rule as the data show it: active = GI50 up to about 1.1 µM and inactive = higher.

Assays:
Assay in all cases: NCI tumour cell line growth inhibition, 48 h
A549 = test system: A549
ACHN = test system: ACHN
CAKI-1 = test system: CAKI-1
DMS-114 = test system: DMS-114
EKVX = test system: EKVX
HCC 2998 = test system: HCC 2998
HCT-15 = test system: HCT-15
HL-60 = test system: HL-60
M14 = test system: M14
Malme-3M = test system: Malme-3M
NCI-H226 = test system: NCI-H226
NCI-H460 = test system: NCI-H460
SK-MEL-5 = test system: SK-MEL-5
SN12C = test system: SN12C
U-251 = test system: U-251
UACC-62 = test system: UACC-62
UO-31 = test system: UO-31
HOP-92 = test system: HOP-92
RXF 393 = test system: RXF 393
NCI/ADR-RES = test system: NCI/ADR-RES

Measured: GI50

CCOC(=O)C(Cc1ccc(N=NN(C)C)cc1)NC(=O)CC1c2ccccc2-c2ccccc21 (configuration not stated)
> 100 µM: HCT-15
inactive: A549 81.7 µM | ACHN 35.6 µM | CAKI-1 > 100 µM | DMS-114 > 100 µM | EKVX > 100 µM | HCC 2998 > 100 µM | HL-60 > 100 µM | M14 > 100 µM | Malme-3M > 100 µM | NCI-H226 > 100 µM | NCI-H460 71.6 µM | SK-MEL-5 57 µM | SN12C > 100 µM | U-251 39.7 µM | UACC-62 42.9 µM | UO-31 > 100 µM

C=C(C)[C@@H]1CC[C@@H]2C(=CC[C@]3(C)C([C@H](C)CC/C=C(/C)C(=O)O)CC[C@@]23C)[C@@]1(C)CCC(=O)O (some centres not stated)
21.3 µM: HCT-15
inactive: A549 36.8 µM | ACHN 19 µM | CAKI-1 23.8 µM | EKVX 36.3 µM | HCC 2998 18.8 µM | HL-60 26.8 µM | HOP-92 19.2 µM | M14 29.5 µM | Malme-3M 25.5 µM | NCI-H226 21.3 µM | NCI-H460 20.4 µM | RXF 393 19.4 µM | SK-MEL-5 16.9 µM | SN12C 33.4 µM | U-251 24.5 µM | UACC-62 20.4 µM | UO-31 16.7 µM

Cc1ccc(N2C(=O)/C(=C3\SC(C(N)=O)=C(N)N3c3ccccc3)SC2=S)cc1
inactive: A549 > 100 µM | ACHN 66.1 µM | HCC 2998 > 100 µM | HL-60 > 100 µM | HOP-92 12.1 µM | NCI-H226 37.3 µM | NCI-H460 > 100 µM | SK-MEL-5 > 100 µM | U-251 71.6 µM | UACC-62 > 100 µM | UO-31 > 100 µM

CCOCNC(=O)N(COCC)COCC
inactive: A549 > 100 µM | ACHN > 100 µM | CAKI-1 > 100 µM | DMS-114 > 100 µM | EKVX > 100 µM | HCC 2998 > 100 µM | HL-60 > 100 µM | M14 > 100 µM | Malme-3M > 100 µM | NCI-H226 > 100 µM | SN12C > 100 µM | UACC-62 > 100 µM | UO-31 > 100 µM
> 100 µM: HCT-15

COc1ccc(Cc2nn(C3OC(COC(C)=O)C(OC(C)=O)C(OC(C)=O)C3OC(C)=O)c(=S)n(-c3ccc(OC)cc3)c2=O)cc1 (configuration not stated)
inactive: A549 > 100 µM | CAKI-1 > 100 µM | EKVX > 54.3 µM | HCC 2998 > 100 µM | HL-60 > 77.8 µM | HOP-92 > 87.5 µM | Malme-3M > 100 µM | NCI-H226 > 100 µM | NCI-H460 > 100 µM | NCI/ADR-RES > 100 µM | RXF 393 > 100 µM | SK-MEL-5 > 100 µM | SN12C > 100 µM | U-251 > 100 µM | UACC-62 > 100 µM | UO-31 > 100 µM
> 100 µM: HCT-15
